Results as given in patent US20090137549A1, “Novel compounds useful for the treatment of degenerative & inflamatory diseases” (priority 2006, published 2009).

Biological target: PDE1A (Homo sapiens, UniProt P54750)
Assay: PDE1A dose response, Cyclic Nucleotide Phosphodiesterase Assay Kit from Biomol (colorimetric)
Format: biochemical
Conditions: purified PDE1A enzyme, 100 μM cAMP
Description: For the dose response and further screening, we used the Cyclic Nucleotide
Phosphodiesterase Assay Kit from Biomol, a colorimetric, non-radioactive assay. The basis for the assay is the cleavage of cAMP by PDE1A. The 5′AMP is further cleaved into the nucleoside and phosphate by the enzyme 5′-nucleotidase (catnr KI-307). The phosphate released due to enzymatic cleavage is quantified using BIOMOL GREEN™ reagent (catnr AK-111) in a modified Malachite Green assay^1,2. A PDE1A inhibitor will result in a decrease of the signal.
For the enzymatic reaction a mix of 25 μL with purified PDE1A enzyme, 100 μM cAMP, 5′Nucleotidase and the compound is made in a clear 384-plate. The reaction buffer is Tris 20 mM pH 7.4, 4 μg/mL calmodulin, 3 mM MgCl2, 1.5 mM CaCl2, 0.2 mg/mL BSA and 0.001% Brij-35. After an incubation of 45 minutes at 37° C., the reaction is stopped by the addition of 50 μL BIOMOL GREEN™ reagent. After 30 minutes incubation at room temperature, the readout is performed on the Envision (absorption at 615 nm).
All compounds are tested in duplicate starting from […] followed by a 1/3 serial dilution, 8 points (20 μM-6.67 μM-2.22 μM-740 nM-247 nM-82 nM-27 nM-9 nM) in a final concentration of 1% DMSO. As the positive dose response control compound Vardenafil is used. For the calculation of z′ and PIN values 10 μM Vardenafil is used as positive control (100% inhibition) and 1% DMSO as negative control (0% inhibition).
The following compounds have been or can be prepared according to the synthetic methods described above. For the purpose of Table 7 below, PDE1A activity of each compound, which can be determined using the assay methods described herein, is expressed as follows: […]

SMILES | IC50
O=c1[nH]c(C2CN(c3ccccc3CN3CCOCC3)C2)nc2c1cnn2C1CCCCC1 [Example 156, 1-Cyclohexyl-6-(1-(2-(morpholinomethyl)phenyl)azetidin-3-yl)-1H-pyrazolo[3,4-d]pyrimidin-4(5H)-one] | 101 to 500 nM
Cc1nn(C(C)(C)C)c2nc(C3CN(C(=O)NC4CCCCC4)C3)[nH]c(=O)c12 [Example 15, 3-(1-tert-butyl-3-methyl-4-oxo-4,5-dihydro-1H-pyrazolo[3,4-d]pyrimidin-6-yl)-N-cyclohexylazetidine-1-carboxamide] | 1 to 100 nM
Cn1c(N2CC(c3nc4c(cnn4C4CCCCC4)c(=O)[nH]3)C2)nc2ccccc21 [Example 131, 1-cyclohexyl-6-(1-(1-methyl-1H-benzo[d]imidazol-2-yl)azetidin-3-yl)-1H-pyrazolo[3,4-d]pyrimidin-4(5H)-one] | 501 to 1000 nM
O=C(Nc1cccc(Cl)c1)N1CC(c2nc3c(cnn3C3CCCCC3)c(=O)[nH]2)C1 [Example 8, N-(3-chlorophenyl)-3-(1-cyclohexyl-4-oxo-4,5-dihydro-1H-pyrazolo[3,4-d]pyrimidin-6-yl)azetidine-1-carboxamide] | 1 to 100 nM
CC(C)c1ccc(NC(=O)N2CC(c3nc4c(cnn4C4CCCCC4)c(=O)[nH]3)C2)cc1 [Example 18, 3-(1-cyclohexyl-4-oxo-4,5-dihydro-1H-pyrazolo[3,4-d]pyrimidin-6-yl)-N-(4-isopropylphenyl)azetidine-1-carboxamide] | 1 to 100 nM
CC(C)N1CCN(c2ccc(NC(=O)N3CC(c4nc5c(cnn5C5CCCCC5)c(=O)[nH]4)C3)cc2)CC1 [Example 2, 3-(1-Cyclohexyl-4-oxo-4,5-dihydro-1H-pyrazolo[3,4-d]pyrimidin-6-yl)-N-(4-(4-isopropylpiperazin-1-yl)phenyl)azetidine-1-carboxamide] | 1 to 100 nM
N#Cc1ccccc1N1CC(c2nc3c(cnn3C3CCCCC3)c(=O)[nH]2)C1 [Example 150, 2-(3-(1-cyclohexyl-4-oxo-4,5-dihydro-1H-pyrazolo[3,4-d]pyrimidin-6-yl)azetidin-1-yl)benzonitrile] | 101 to 500 nM
COc1ccc(S(=O)(=O)N2CCCC(c3nc4c(c(C)nn4C4CCC4)c(=O)[nH]3)C2)cc1 (stereo not drawn) [Example 70, 1-cyclobutyl-6-(1-(4-methoxyphenylsulfonyl)piperidin-3-yl)-3-methyl-1H-pyrazolo[3,4-d]pyrimidin-4(5H)-one] | 101 to 500 nM
CC(C)N1CC(n2ncc3c(=O)[nH]c(C4CN(C(=O)Nc5ccc(F)cc5)C4)nc32)C1 [Example 108, N-(4-fluorophenyl)-3-(1-(1-isopropylazetidin-3-yl)-4-oxo-4,5-dihydro-1H-pyrazolo[3,4-d]pyrimidin-6-yl)azetidine-1-carboxamide] | 1000 to 1500 nM
O=c1[nH]c(C2CCCN(c3ccc([N+](=O)[O-])cn3)C2)nc2c1cnn2C1CCCCC1 (stereo not drawn) [Example 153, 1-cyclohexyl-6-(1-(5-nitropyridin-2-yl)piperidin-3-yl)-1H-pyrazolo[3,4-d]pyrimidin-4(5H)-one] | 1000 to 1500 nM
Cc1nn(C(C)(C)C)c2nc(C3CN(C(=O)Nc4ccc5c(c4)OCO5)C3)[nH]c(=O)c12 [Example 1, N-(Benzo[d][1,3]dioxol-5-yl)-3-(1-tert-butyl-3-methyl-4-oxo-4,5-dihydro-1H-pyrazolo[3,4-d]pyrimidin-6-yl)azetidine-1-carboxamide] | 1 to 100 nM
Cc1ccccc1C(=O)N1CCCC(c2nc3c(c(C)nn3C3CCCCC3)c(=O)[nH]2)C1 (stereo not drawn) [Example 87, 1-cyclohexyl-3-methyl-6-(1-(2-methylbenzoyl)piperidin-3-yl)-1H-pyrazolo[3,4-d]pyrimidin-4(5H)-one] | 501 to 1000 nM
COC(=O)c1ccc(C(=O)N2CCCC(c3nc4c(c(C)nn4C4CCCCC4)c(=O)[nH]3)C2)cc1 (stereo not drawn) [Example 66, methyl 4-(3-(1-cyclohexyl-3-methyl-4-oxo-4,5-dihydro-1H-pyrazolo[3,4-d]pyrimidin-6-yl)piperidine-1-carbonyl)benzoate] | 101 to 500 nM

Other lines, results leading:

IC50 | SMILES
501 to 1000 nM | Cc1nn(C2CCCCC2)c2nc(C3CN(C(=O)Cc4ccccc4)C3)[nH]c(=O)c12 [Example 85, 1-cyclohexyl-3-methyl-6-(1-(2-phenylacetoyl)azetidin-3-yl)-1H-pyrazolo[3,4-d]pyrimidin-4(5H)-one]
1 to 100 nM | O=c1[nH]c(C2CN(c3nnc(-c4ccccc4)[nH]3)C2)nc2c1cnn2C1CCCCC1 [Example 158, 1-Cyclohexyl-6-(1-(5-phenyl-4H-1,2,4-triazol-3-yl)azetidin-3-yl)-1H-pyrazolo[3,4-d]pyrimidin-4-(5H)-one]
101 to 500 nM | CC(=O)Nc1ccc(N2CC(c3nc4c(cnn4C4CCCCC4)c(=O)[nH]3)C2)cc1 [Example 167, N-(4-(3-(1-cyclohexyl-4-oxo-4,5-dihydro-1H-pyrazolo[3,4-d]pyrimidin-6-yl)azetidin-1-yl)phenyl)acetamide]
1 to 100 nM | Cc1nn(C2CCCCC2)c2nc(C3CN(C(=O)Nc4ccc(F)cc4)C3)[nH]c(=O)c12 [Example 21, 3-(1-cyclohexyl-3-methyl-4-oxo-4,5-dihydro-1H-pyrazolo[3,4-d]pyrimidin-6-yl)-N-(4-fluorophenyl)azetidine-1-carboxamide]
1 to 100 nM | CC(C)(C)n1ncc2c(=O)[nH]c(C3CN(c4nc5cc(C(F)(F)F)ccc5[nH]4)C3)nc21 [Example 127, 1-tert-butyl-6-(1-(5-(trifluoromethyl)-1H-benzo[d]imidazol-2-yl)azetidin-3-yl)-1H-pyrazolo[3,4-d]pyrimidin-4(5H)-one]
501 to 1000 nM | COc1cccc(S(=O)(=O)N2CCCC(c3nc4c(cnn4C4CCCCC4)c(=O)[nH]3)C2)c1 (stereo not drawn) [Example 79, 1-cyclohexyl-6-(1-(3-methoxyphenylsulfonyl)piperidin-3-yl)-1H-pyrazolo[3,4-d]pyrimidin-4(5H)-one]
101 to 500 nM | O=C(c1ccccc1OC(F)(F)F)N1CCCC(c2nc3c(cnn3C3CCCCC3)c(=O)[nH]2)C1 (stereo not drawn) [Example 54, 1-cyclohexyl-6-(1-(2-(trifluoromethoxy)benzoyl)piperidin-3-yl)-1H-pyrazolo[3,4-d]pyrimidin-4(5H)-one]
101 to 500 nM | O=C(NC1CCOCC1)N1CC(c2nc3c(cnn3C3CCCCC3)c(=O)[nH]2)C1 [Example 47, 3-(1-cyclohexyl-4-oxo-4,5-dihydro-1H-pyrazolo[3,4-d]pyrimidin-6-yl)-N-(tetrahydro-2H-pyran-4-yl)azetidine-1-carboxamide]
501 to 1000 nM | COc1ccccc1C(=O)N1CC(c2nc3c(c(C)nn3C3CCCCC3)c(=O)[nH]2)C1 [Example 93, 1-cyclohexyl-6-(1-(2-methoxybenzoyl)azetidin-3-yl)-3-methyl-1H-pyrazolo[3,4-d]pyrimidin-4(5H)-one]
1000 to 1500 nM | O=c1[nH]c(C2CCCN(S(=O)(=O)c3ccc(OC(F)(F)F)cc3)C2)nc2c1cnn2C1CCCCC1 (stereo not drawn) [Example 105, 1-cyclohexyl-6-(1-(4-(trifluoromethoxy)phenylsulfonyl)piperidin-3-yl)-1H-pyrazolo[3,4-d]pyrimidin-4(5H)-one]
1 to 100 nM | N#C/N=C(/NCC1CCCCC1)N1CC(c2nc3c(cnn3C3CCCCC3)c(=O)[nH]2)C1 [Example 178, N′-Cyano-3-(1-cyclohexyl-4-oxo-4,5-dihydro-1H-pyrazolo[3,4-d]pyrimidin-6-yl)-N-(cyclohexylmethyl)azetidine-1-carboximidamide]
101 to 500 nM | COc1ccc(OC)c(S(=O)(=O)N2CCCC(c3nc4c(cnn4C4CCCCC4)c(=O)[nH]3)C2)c1 (stereo not drawn) [Example 63, 1-cyclohexyl-6-(1-(2,5-dimethoxyphenylsulfonyl)piperidin-3-yl)-1H-pyrazolo[3,4-d]pyrimidin-4(5H)-one]
1 to 100 nM | COc1ccc(CNC(=O)N2CC(c3nc4c(c(C)nn4C4CCCCC4)c(=O)[nH]3)C2)cc1 [Example 28, 3-(1-cyclohexyl-3-methyl-4-oxo-4,5-dihydro-1H-pyrazolo[3,4-d]pyrimidin-6-yl)-N-(4-methoxybenzyl)azetidine-1-carboxamide]
501 to 1000 nM | O=c1[nH]c(C2CN(Cc3nc4ccccc4s3)C2)nc2c1cnn2C1CCCCC1 [Example 172, 6-(1-(Benzo[d]thiazol-2-ylmethyl)azetidin-3-yl)-1-cyclohexyl-1H-pyrazolo[3,4-d]pyrimidin-4(5H)-one]
101 to 500 nM | CCCCS(=O)(=O)Nc1cccc(C(=O)N2CCCC(c3nc4c(c(C)nn4C4CCCCC4)c(=O)[nH]3)C2)c1 (stereo not drawn) [Example 55, N-(3-(3-(1-cyclohexyl-3-methyl-4-oxo-4,5-dihydro-1H-pyrazolo[3,4-d]pyrimidin-6-yl)piperidine-1-carbonyl)phenyl)butane-1-sulfonamide]
1 to 100 nM | O=C(NCc1ccccc1)N1CC(c2nc3c(cnn3C3CCCCC3)c(=O)[nH]2)C1 [Example 31, N-benzyl-3-(1-cyclohexyl-4-oxo-4,5-dihydro-1H-pyrazolo[3,4-d]pyrimidin-6-yl)azetidine-1-carboxamide]
1000 to 1500 nM | Cc1nn(C2CCC2)c2nc(C3CCCN(C(=O)c4ccc(C#N)cc4)C3)[nH]c(=O)c12 (stereo not drawn) [Example 102, 4-(3-(1-cyclobutyl-3-methyl-4-oxo-4,5-dihydro-1H-pyrazolo[3,4-d]pyrimidin-6-yl)piperidine-1-carbonyl)benzonitrile]
